Measurements as given in US20130217132A1, “METHODS, COMPOSITIONS AND USE FOR ENHANCING CHEMICAL TOLERANCE BY MICROORGANISMS” (priority 2009, published 2013).
Read-outs that look alike come from different tables or passages of the source.

Experiments:
[1] = tested on: BW25113 ArecA cells overexpressing lpcA gene (pLPCA); format: cell-based, E. coli; settings: for OD600 (cell growth in the presence of furfural): furfural 1 g/L, lpcA overexpression, FIG. 19
Procedure: (§1) FIGS. 17A-17B represent methods of identification of a gene related to restoring tolerance. Multiple genome-wide SCALE selection was performed in the presence of ethanol, furfural and acetate respectively. The data set obtained for each compound was compared to the others. Alleles enriched in all cases were identified. […] To restore tolerance, overexpression of identified genes in bacterial cells was performed. For example, lpcA ORF was cloned into the pBTL-1 vector. BW25113 ArecA cells transformed with the blank pBTL-1 vector were used as a control. BW25113 ArecA cells overexpressing lpcA gene were referred to as pLPCA. Cells were inoculated at a standard cell density into MOPS minimal media, supplemented with furfural, acetate or ethanol. After 24 hours, growth of the cells was analyzed.
(§2) The indicated cells were grown in MOPS minimal media supplemented with glucose as a carbon source. Furfural was added to the media at the concentration of 1 g/L. Arabinose was added at 10 mM where indicated to gauge effect of AraC binding. The BW25113 araC::FRT-kan clone corresponds to JW0063, a BW25113 araC knockout mutant ordered from the Keio Collection directly. pBTL-1 represented the blank vector, and pLPCA referred to lpcA gene overexpression. […] To analyze the LPS level in the cells indicated in FIG. 19, LPS are extracted from the cells grown to exponential phase. Loading of LPS for the protein gel is normalized to the cell number. The gel is stained to visualize LPS protein bands after desired separation is obtained.
(§3) BW25113, MG1655, and derivatives were used where indicated. JW0063, an araC mutant of BW25113 was obtained from the Coli Genetic Stock Center (Yale). Overnight bacterial cultures were grown in Luria-Bertani medium with shaking. MOPS minimal medium (previously presented) with 0.2% glucose as a carbon source, was used for all seed cultures and growth studies. Seed cultures were inoculated at 2 v/v % from an overnight culture and were grown to mid-exponential phase. Growth cultures were inoculated with 10 v/v % seed cultures of an OD600 of 0.195-0.200 for an initial optical density of ˜0.02. Carbenicillin and kanamycin were used where appropriate at 100 μg/ml and 30 μg/ml, respectively. The pBTL-1 vector (previously described) was used as the control blank vector for all growth studies. Genome-wide furfural selection

[2] = tested on: BW25113 ArecA cells transformed with the blank pBTL-1 vector; format: cell-based, E. coli
Procedure: as §1, §2, §3

[3] = tested on: BW25113 araC::FRT-kan clone with overexpression of lpcA gene; assay: Cell growth (OD600) in MOPS minimal media with furfural, araC deletion plus lpcA overexpression; format: cell-based, E. coli; settings: furfural 1 g/L, araC deletion and lpcA overexpression
Procedure: In other exemplary methods, tolerance and expression of LPS was restored in a microorganism. FIG. 19 represents an example of restoration of tolerance and LPS expression in BW25113 ArecA clone. The indicated cells were grown in MOPS minimal media supplemented with glucose as a carbon source. Furfural was added to the media at the concentration of 1 g/L. Arabinose was added at 10 mM where indicated to gauge effect of AraC binding. The BW25113 araC::FRT-kan clone corresponds to JW0063, a BW25113 araC knockout mutant ordered from the Keio Collection directly. pBTL-1 represented the blank vector, and pLPCA referred to lpcA gene overexpression. Consistent with the Examples above, overexpression of lpcA gene increased cell growth (OD600 of 0.1 vs. 0.05) in the presence of furfural. Addition of Arabinose to the lpcA gene overexpression cells could further enhance the effect (OD600 of 0.3). […] To analyze the LPS level in the cells indicated in FIG. 19, LPS are extracted from the cells grown to exponential phase. Loading of LPS for the protein gel is normalized to the cell number. The gel is stained to visualize LPS protein bands after desired separation is obtained.
BW25113, MG1655, and derivatives were used where indicated. JW0063, an araC mutant of BW25113 was obtained from the Coli Genetic Stock Center (Yale). Overnight bacterial cultures were grown in Luria-Bertani medium with shaking. […]

[4] = tested on: pBTL-1 Control (blank vector) culture; assay: Aerobic growth (specific growth, final OD600) in MOPS minimal media with inhibitor, control; format: cell-based, E. coli; settings: aerobic growth in 1 g/L furfural
Procedure: Certain experiments described herein were performed in E. coli BW25113 recA-, with the kanamycin resistance gene removed.
Cultures were grown in 10 ml MOPS minimal media, 100 μg carbenicillin/ml, and either 1 g furfural/1 supplemented, 2 g HMF/1, or 4 g acetate/1, in 15 ml conical tubes at 37° C. The optical density of 1 ml culture was measured with a spectrophotometer at 600 nm. A natural log transformation of the data was then calculated and then a regression line was fit to the data to calculate specific growth, which is […] to the culture doubling time. The blank vector, pBTL-1, served as the control. The lpcA gene was cloned into the pBTL-1 using standard cloning techniques and primers designed to amplify the gene from template DNA.

[5] = tested on: pyruvate dehydrogenase (PDH) complex; settings: 0.12 g/L furfural; cited from earlier work
E. coli LYO1 = settings: cited from earlier work

## O=Cc1ccco1 [furfural, furan-2-carbaldehyde]
[1]; Arabinose 10 mM
  OD600 (cell growth in the presence of furfural): 0.3
[1]; no Arabinose
  OD600 (cell growth in the presence of furfural): 0.1
[1]; furfural 1 g/l
  improvement of final optical density by pLPCA in BW25113: 252±8%
[1]; pLPCA cells, 1 g/L of furfural
  OD600 at 24 hr: about 1.2
[2]; control cells, 1 g/L of furfural
  OD600 at 24 hr: about 0.2
[2]; furfural 1 g/L, blank vector pBTL-1, no Arabinose, FIG. 19
  OD600 (cell growth in the presence of furfural): 0.05
[3]; absence of Arabinose
  OD600 (cell growth in the presence of furfural): 0.5
[3]; presence of Arabinose
  OD600 (cell growth in the presence of furfural): 1.0
[4]
  Final OD600 (24 hr): 0.586
[4]; n=3
  Specific Growth: 0.111 h⁻¹
[5]
  activity reduction: more than 80%
E. coli LYO1
  ethanol production: inhibited
